Measured values: patent US20240226288A1, “TRANSPLANT MATERIAL AND KIDNEY TRANSPLANT KIT” (THE JIKEI UNIVERSITY, priority 2021, published 2024)

Assay: Monitoring of recipient monkeys by blood test during immunosuppressant administration
Format: in vivo, cynomolgus monkey
Details: blood test after start of administration
Method: Regarding the start day, the day of transplantation is represented by (0), and the preceding days are represented by the minus sign (−). Specifically, in the therapy, tacrolimus (0.02 mg/kg im×2/day; day −9 from start day), abatacept (50 mg/kg iv×1/week; day 7 from start day), and mycophenolate mofetil (40 mg/kg po×2/day; day −5 from start day) were used. The administration of methylprednisolone (10 mg/kg iv) was also carried out from day 0 from the start day, which was changed to oral administration (5 mg/kg) from the next day. […] Furthermore, thymoglobulin (10 mg/kg iv on day 3), rituximab (10 mg/kg iv on day 2), tocilizumab (10 mg/kg sc on day −1, 7, and 14), and etanercept (0.5 mg/kg sc on day 0, 3, 6, and 10) were administered. The concentrations of tacrolimus and mycophenolate mofetil in blood were measured twice a week, and the dose was appropriately adjusted based on the target trough level (TAC trough level: 15 to 20 ng/mL on day −9 to 2; 9 to 12 ng/ml from day 3, MMF trough level: 4 to 6 μg/mL).
The daily dietary status and activity of the recipient monkeys were monitored, and support was provided through supplementation as needed. Furthermore, the systemic condition of the monkeys was evaluated by the measurement of body weight. body temperature, and SpO2 as well as blood sampling conducted twice a week. […]

- absorption: confirmed
Compound: COc1c(C)c2c(c(O)c1C/C=C(\C)CCC(=O)OCCN1CCOCC1)C(=O)OC2 [MMF, Mycophenolate mofetil]
